Assay results: ChEMBL document CHEMBL1138041, “Parallel artificial membrane permeability assay: a new membrane for the fast prediction of passive human skin permeability” (J Med Chem, 2006)

Legend:
[1] = organism: Homo sapiens
[2] = not given; remark: listed apart in the source
[3] = not given; remark: listed apart in the source
[4] = physchem
[5] = not given; remark: listed apart in the source

SMILES | log Kp ([1]; in vivo) [cm/s] | log Pe [2] [cm/s] | log Pe [3] [cm/s] | pKa [4] | further results
O=C(OCc1ccccc1)c1cccnc1 [BENZYL NICOTINATE] | -5.35 | -4.35 | -4.26 | 3.94 | log Pe: -4.18 cm/s
Oc1ccccc1 [PHENOL] | – | – | – | – | log Kp [1]: -5.54 cm/s; log Kp ([5]; not told): -4.45 cm/s; log Pe (not told): -4.53 cm/s; log Pe ([2]; not told): -4 cm/s; log Pe ([3]; not told): -4.14 cm/s
Cc1ccc(C(C)C)c(O)c1 [THYMOL] | -4.83 | -4.23 | -4.34 | 10.6 | log Kp [5]: -3.68 cm/s; log Pe: -4.11 cm/s
CN[C@@H](C)[C@H](O)c1ccccc1 [EPHEDRINE] | -5.75 | – | -4.82 | – | –
Cc1cc(=O)n(-c2ccccc2)n1C [ANTIPYRINE] | -7.74 | -5.4 | -6.2 | – | –
Cn1c(=O)c2c(ncn2C)n(C)c1=O [CAFFEINE] | – | – | – | – | log Kp [1]: -7.56 cm/s
COc1ccc2c(c1)c(CC(=O)O)c(C)n2C(=O)c1ccc(Cl)cc1 [INDOMETHACIN] | – | – | -4.2 | – | log Kp [1]: -5.39 cm/s
CN1CCC[C@H]1c1cccnc1 [NICOTINE] | – | – | – | 8.08 | log Kp [1]: -5.26 cm/s; log Kp ([5]; not told): -4.29 cm/s; log Pe (not told): -4.86 cm/s; log Pe ([2]; not told): -4.23 cm/s; log Pe ([3]; not told): -4.58 cm/s
O=[N+]([O-])c1ccc(O)cc1 [P-NITROPHENOL] | -5.81 | -4.09 | -4.33 | 6.9 | log Kp [5]: -5.08 cm/s; log Pe: -5.24 cm/s
Oc1ccc(Cl)cc1 [PARACHLOROPHENOL] | -5 | – | -4.1 | 9.26 | –
O=C(O)c1ccccc1O [SALICYLIC ACID] | – | – | – | – | log Kp ([5]; not told): -4.7 cm/s; log Pe (not told): -4.74 cm/s; log Pe ([2]; not told): -3.98 cm/s; log Pe ([3]; not told): -4.16 cm/s
CN1C(C(=O)Nc2ccccn2)=C(O)c2ccccc2S1(=O)=O [PIROXICAM] | -6.02 | – | -4.35 | – | –
O=C(O)Cc1ccccc1Nc1c(Cl)cccc1Cl [DICLOFENAC] | -5.3 | – | -4.33 | – | –
CCNc1nc(Cl)nc(NC(C)C)n1 [ATRAZINE] | -5.56 | – | -4.21 | < 2 | –
Oc1ccc2ccccc2c1 [BETANAPHTHOL] | – | – | – | 9.4 | log Kp [1]: -5.11 cm/s; log Kp ([5]; not told): -4.08 cm/s; log Pe (not told): -4.35 cm/s; log Pe ([2]; not told): -4.41 cm/s; log Pe ([3]; not told): -4.19 cm/s
Oc1cccc(O)c1 [RESORCINOL] | – | -4.66 | -5.62 | 9.21 | –
c1ccc2cnccc2c1 [ISOQUINOLINE] | -5.33 | – | -4.05 | 5.37 | –
CCC1(c2ccccc2)C(=O)NC(=O)NC1=O [PHENOBARBITAL] | – | -4.16 | -5.15 | 7.49 | log Kp [1]: -6.9 cm/s
COC(=O)c1cccnc1 [METHYL NICOTINATE] | -6.04 | – | -4.32 | 3.84 | –
CCc1ccc(O)cc1 | -5.01 | – | -4.05 | 10.2 | –
CC(C(=O)O)c1cccc(C(=O)c2ccccc2)c1 (stereo unspecified) [KETOPROFEN] | -4.7 | – | – | – | –
CC(=O)[C@H]1CC[C@H]2[C@@H]3CCC4=CC(=O)CC[C@]4(C)[C@H]3CC[C@]12C [PROGESTERONE] | -5.08 | – | – | – | log Pe (not told): -4.31 cm/s; log Pe ([2]; not told): -4.63 cm/s; log Pe ([3]; not told): -4.56 cm/s
Nc1cc([N+](=O)[O-])ccc1O [2-AMINO-4-NITROPHENOL] | -6.62 | -3.96 | -4.84 | 6.7 | –
